Reference: patent publication US9938328B2, “Use of PEDF-derived polypeptides for treating alopecia and/or hair depigmentation” (MacKay Memorial Hospital, priority 2012, dated 2018)
“Also recorded” adds a separate entry of the source. Read-outs that look alike come from different tables or passages of the source.

What was measured:
[1] = system: male mouse vibrissal hair follicles; assay: Organ culture of mouse vibrissal hair follicles challenged with DHT (TUNEL, BrdU, histology); format: cell-based; settings: for BrdU Labeling Index (%) / TUNNEL Labeling Index (%): peptide for 16 hours, then 100 nM DHT for further 48 hours, hair matrix keratinocytes; for TUNEL-positive keratinocytes versus vehicle or 18-mer (in words): vibrissae with 100 nM DHT
Protocol: (§1) The vibrissae follicle cryosections were washed three times in PBS. Formalin-fixed, paraffin-embedded skin specimens were deparaffinized in xylene and rehydrated in a graded series of ethanol. Sections were then stained with TdT-mediated dUTP nick-end labeling (TUNEL)-based kit (Roche Molecular Biochemicals, Indianapolis, Ind.) following the manufacturer's instructions. The cell number was monitored by counterstaining with Hoechst 33258 (blue). The nuclei were calculated in ten randomly selected fields of the three different chambers by a Zeiss epifluorescence microscope (400×, 10 fields/sample). Pictures were recorded on Zeiss software.
(§2) After fixing with 4% paraformaldehyde, cells were exposed to cold methanol for 2 minutes, and then treated with 1 N HCl at room temperature for 1 hour before performing immunofluorescence. BrdU-labeled DNA was detected by polyclonal anti-BrdU antibody and rhodamine-conjugated donkey anti-rabbit IgG.
(§3) For animal study, BrdU was reconstituted in DMSO as stock (80 mM). 10 μl of BrdU mixed with 90 μl of PBS was intraperitoneally injected into mouse at 16 hours prior to euthanasia. Formalin-fixed, paraffin-embedded skin specimens were deparaffinized in xylene and rehydrated in a graded series of ethanol before performing immunohistochemistry. The vibrissae follicle cryosections were washed three times in PBS and then exposed to 1 N HCl at room temperature for 1 hour for subsequent immunohistochemistry.
Mouse vibrissae follicles were cultured as follows. Briefly, whisker pads were cut off from the face of mouse and transferred to a Petri dish containing PBS and 1% antibiotic mixture. Each vibrissae follicle that was in anagen was isolated from the whisker pads and cultured in DMEM supplemented with insulin (10 μg/ml), hydrocortisone (10 ng/ml, Sigma-Aldrich), 1% penicillin/streptomycin antibiotic mixture and L-glutamine (2 mM), using 24-well culture plates (3 vibrissae follicles per well) and incubated at 37° C., in 5% CO2. Ten to fifteen HFs were studied in each experimental group, and were repeated three times. DHT and PEDF peptide dissolved in DMSO were added to the HF culture supplemented with insulin and hydrocortisone (the final concentration of DMSO was less than 0.05%).
Each PEDF peptide (29-mer, 24-mer, 20-mer, or Mo 20-mer) was added to organ culture of male mouse vibrissal hair follicles (HFs) for 16 hours, and then 100 nM DHT was added for further 48 hours.
Immunodetections of TUNEL- and BrdU-positive cells in cryosections were used for assessing apoptosis and proliferation activity in the HF epithelium, respectively. The labeling index (%) of TUNEL- and BrdU-positive cells was computed as the number of labeled cells divided by the total number of cells with nuclei.

male C57BL/6 mice = assay: DHT-induced catagen development in depilated mice, topical peptide gel (histomorphometry, TUNEL, BrdU); format: in vivo, mouse; settings: day-15 post-depilation; for hair cycle phase of hair follicles (histology, in words): 4 days after the DHT injection; for BrdU Labeling Index (%) in HB: hair bulb; for Phase (%) Anagen-Catagen I / Phase (%) Catagen II-III / Phase (%) Catagen IV-V / Phase (%) Catagen VI-VIII: percentage of hair follicles
Protocol: (§4) Before use, the stock containing the 44-mer was prepared into a working dilution, which is then mixed with an antibiotic ointment containing 5 mg/g neomycin sulfate and 12.5 mg/g bacitracin to obtain an antibiotic ointment containing 25 μM of 44-mer. As to other PEDF peptides, 5 μl of 5 mM PEDF peptide stock was gradually dissolved in ethyl alcohol (30% w/w in distilled water), and then 1-oleoyl-rac-glycerol (1% w/w, a skin penetration enhancer) and light mineral oil (1% w/w) were gradually added. The solution was finally gelled by adding hydroxypropyl methylcellulose (5% w/w) to a final volume of 1 ml. A DMSO vehicle corresponding to the peptide formulation was prepared for the purpose of in vivo comparison. FITC-29-mer was also dissolved in the same formulation for applied on top of skin to determining the follicular distribution of FITC-29-mer.
(§5) For topical treatments, 350 mg ointment or gel containing 25 μM of PEDF peptide was spread gently over dorsal skin per mouse.
The murine back skin was harvested parallel to the vertebral line to obtain longitudinal sections through the hair follicles. Dorsal skin was fixed in 4% paraformaldehyde and embedded in paraffin blocks to obtain longitudinal section. Tissues were sliced into 5 μm sections. Before use, fixed samples were de-paraffinized in xylene and rehydrated in a graded series of ethanol. General histology was performed using H&E dye. Digital photomicrographs (Zeiss epifluorescence microscope; Jena, Germany) were taken from representative areas at a fixed magnification of 100×.
For analysis of HF morphogenesis, animals were euthanized at day 15 post-depilation. The percentage of hair follicles in different stages of morphogenesis was assessed on the accepted basis of murine HF morphological criteria as described by Müuller-Röver et al. (Journal of Investigative Dermatology (2001) 117, 3-15). At least 24 longitudinally cut HF sections obtained from six to ten DHT-treated animals, were analyzed.
as §1, §3
For in vivo analysis, a 5α-dihydrotestosterone (DHT) animal model was employed. Six-week-old male C57BL/6 mice (weighing 15-20 g) in the telogen stage of the hair cycle were depilated using a melted wax/rosin mixture (1:1) under general anesthesia, and the anagen stage was induced. DHT was dissolved in DMSO to give a 50 mg/ml stock solution. On day-11 post-depilation, mice (six to ten mice per experimental condition) were injected subcutaneously in the shaved dorsal area with DHT solution (30 mg/kg body weight; 1.5 mg of DHT mixed within 200 μl of olive oil per mouse). After the DHT injection, 350 mg vehicle gel or gel containing 25 μM of PEDF peptide (29-mer, 24-mer, 20-mer, or 18-mer) was topically applied to the back skin of mice once per day for 3 days. […]

C57BL/6 mice = assay: Hair regrowth in DHT-injected depilated mice, topical peptide gel for 14 days; format: in vivo, mouse; settings: for Numbers of Hair Bulbs/mm deep subcutis / Hair Growth Score: DHT 30 mg/kg s.c. twice per week, gel 25 μM once per day for 14 days; for hair regrowth after depilation (FIG. 7, in words) / increase in total number of hair bulbs versus vehicle or 18-mer: DHT-injected mice; for hair regrowth after depilation (FIG. 7, in words): daily application, day-18 post-depilation; for Hair Growth Score: scale 0 (0%) to 5 (80-100% of shaved area dark)
Protocol: as §4, §5
To evaluate the effect of PEDF peptide on restarting hair growth, C57BL/6 mice were depilated as described in Example 3.2. At day-11 post-depilation, mice (six to ten mice per experimental condition) were injected subcutaneously (30 mg/kg body weight) in the shaved dorsal area with DHT solution (1.5 mg of DHT mixed within 200 μl of olive oil), and then the mice were injected with DHT twice per week during the course of the study. After the first DHT injection, 350 mg vehicle gel or gel containing 25 μM PEDF peptide (29-mer, 24-mer, 20-mer, or 18-mer) was topically applied to the back skin of mice once per day for 14 days. Changes in hair coat were recorded by photographing with a digital camera (FIG. 7), and the percentage of the shaved area that became dark (re-grown hair) was measured. The scores of hair regrowth after DHT injection was evaluated using the following scale: 0, 0% (no hair growth); 1, <20%; 2, 20-39%; 3, 40-59%; 4, 60-79%; 5, 80-100%. Numbers of hair bulbs per unit length (1 mm) of deep subcutis were counted as described above.

[2] = system: human epidermal keratinocytes (HaCaT); assay: BrdU incorporation in HaCaT keratinocytes in response to TGF-β1 and PEDF-derived peptide; format: cell-based
Protocol: as §2
An immortalized human keratinocyte cell line (HaCaT) was cultured at 37° C. in 10% FBS-DMEM. Treatments with PEDF peptide and recombinant human TGFβ1 (R&D Systems) were performed on cells seeded in 5% FBS-DMEM.
It is known that DHT would induce the expression of transforming growth factor-β1 (TGF-β1) in dermal papilla cells (DPCs), and TGF-β1 is a catagen inducer that suppresses hair growth and follicular keratinocyte growth in subjects with androgenic alopecia. To further confirm that PEDF-derived peptide is able to protect keratinocytes from DHT-mediated growth suppression, the cell division of human epidermal keratinocytes (HaCaT) in response to TGF-β1 and PEDF-derived peptide were assessed by BrdU incorporation. The labeling index (%) of BrdU-positive cells was computed as the number of labeled cells divided by the total number of cells with nuclei.
However, in the TGF-β1+20-mer treatment group, TGF-β1 was unable to suppress the proliferative activity of HaCaT, when cells were pretreated with 20-mer for 16 hours.

[3] = DHT 30 mg/kg s.c., gel 25 μM once per day for 3 days

EQRTESIIHRALYYDLIS [18-mer, 18-mer peptide without the SLGA residues]
BrdU Labeling Index (%) [1]: 8.4 ± 1.21%
TUNNEL Labeling Index (%) [1]: 26.2 ± 4.21%
hair cycle phase of hair follicles (histology, in words) (male C57BL/6 mice): entered catagen; also recorded: in the middle and late catagen phase
TUNNEL-positive cell/HF in HM and ORS (male C57BL/6 mice; [3]): 7.6 ± 1.5 cell/HF
BrdU Labeling Index (%) in HB (male C57BL/6 mice; [3]): 25.6 ± 2.52%
Phase (%) Anagen-Catagen I (male C57BL/6 mice; [3]): 9.7 ± 1.8%
Phase (%) Catagen II-III (male C57BL/6 mice; [3]): 13.85 ± 1.75%
Phase (%) Catagen IV-V (male C57BL/6 mice; [3]): 53.05 ± 0.85%
Phase (%) Catagen VI-VIII (male C57BL/6 mice; [3]): 23.4 ± 4.4%
Numbers of Hair Bulbs/mm deep subcutis (C57BL/6 mice): 4.8 ± 0.86 /mm
hair regrowth after depilation (FIG. 7, in words) (C57BL/6 mice): remarkable retardation of hair regrowth
Hair Growth Score (C57BL/6 mice): 1.88 ± 0.40

transforming growth factor-β1 [TGF-β1, reference compound]
BrdU Labeling Index (%) [2]: 9.9 ± 2.23 %

SLGAEQRTESIIHRALYYDLISSPDIHGT [29-mer, corresponds to residues 93-121 of human PEDF]
BrdU Labeling Index (%) [1]: 22.6 ± 2.42 %
TUNNEL Labeling Index (%) [1]: 5.8 ± 2.12 %
TUNEL-positive keratinocytes versus vehicle or 18-mer (in words) [1]: much less TUNEL-positive keratinocytes
hair cycle phase of hair follicles (histology, in words) (male C57BL/6 mice): mostly in the anagen phase; also recorded: significantly higher percentage of hair follicles was found in the anagen phase, and the early catagen phase
BrdU Labeling Index (%) in HB (male C57BL/6 mice; [3]): 44.89 ± 2.95 %
Phase (%) Anagen-Catagen I (male C57BL/6 mice; [3]): 39.85 ± 1.35 %
Phase (%) Catagen II-III (male C57BL/6 mice; [3]): 37.8 ± 1.3%
Phase (%) Catagen IV-V (male C57BL/6 mice; [3]): 19.15 ± 2.05%
Phase (%) Catagen VI-VIII (male C57BL/6 mice; [3]): 3.2 ± 0.6 %
Numbers of Hair Bulbs/mm deep subcutis (C57BL/6 mice): 7.4 ± 1.03 /mm
increase in total number of hair bulbs versus vehicle or 18-mer (C57BL/6 mice): 1.6 fold
hair regrowth after depilation (FIG. 7, in words) (C57BL/6 mice): amelioration of the retardation of hair regrowth
Hair Growth Score (C57BL/6 mice): 3.75 ± 0.37

SLGAEHRTESVIHRALYYDL [Mo 20-mer, synthetic peptide derived from mouse PEDF]
BrdU Labeling Index (%) [1]: 24.6 ± 2.56 %
TUNNEL Labeling Index (%) [1]: 7.3 ± 1.75 %
TUNEL-positive keratinocytes versus vehicle or 18-mer (in words) [1]: much less TUNEL-positive keratinocytes

SLGAEQRTESIIHRALYYDLISSP [24-mer, corresponds to residues 93-116 of human PEDF]
BrdU Labeling Index (%) [1]: 22.0 ± 3.69 %
TUNNEL Labeling Index (%) [1]: 6.5 ± 2.43 %
TUNEL-positive keratinocytes versus vehicle or 18-mer (in words) [1]: much less TUNEL-positive keratinocytes
hair cycle phase of hair follicles (histology, in words) (male C57BL/6 mice): significantly higher percentage of hair follicles was found in the anagen phase, and the early catagen phase
BrdU Labeling Index (%) in HB (male C57BL/6 mice; [3]): 46.9 ± 2.57 %
Numbers of Hair Bulbs/mm deep subcutis (C57BL/6 mice): 7.2 ± 1.07 /mm
increase in total number of hair bulbs versus vehicle or 18-mer (C57BL/6 mice): 1.6 fold
hair regrowth after depilation (FIG. 7, in words) (C57BL/6 mice): amelioration of the retardation of hair regrowth
Hair Growth Score (C57BL/6 mice): 4.13 ± 0.40

SLGAEQRTESIIHRALYYDL [20-mer, corresponds to residues 93-112 of human PEDF]
BrdU Labeling Index (%) [1]: 23.6 ± 4.56 %
TUNNEL Labeling Index (%) [1]: 6.8 ± 1.68 %
hair matrix histology (H&E, FIG. 5) ([1]; peptide pretreatment, then 100 nM DHT): regularly aligned keratinocytes and much less abnormal melanin particles
TUNEL-positive keratinocytes versus vehicle or 18-mer (in words) [1]: much less TUNEL-positive keratinocytes
BrdU Labeling Index (%) [2]: 23.3 ± 2.46%
BrdU Labeling Index (%) ([2]; TGF-β1 + 20-mer: pretreated with 20-mer for 16 hours, then TGF-β1 4 ng/ml, 24 hours): 32.3 ± 3.70 %
hair cycle phase of hair follicles (histology, in words) (male C57BL/6 mice): mostly in the anagen phase; also recorded: significantly higher percentage of hair follicles was found in the anagen phase, and the early catagen phase
BrdU Labeling Index (%) in HB (male C57BL/6 mice; [3]): 45.2 ± 2.47 %
Phase (%) Anagen-Catagen I (male C57BL/6 mice; [3]): 39.0 ± 2.8 %
Phase (%) Catagen II-III (male C57BL/6 mice; [3]): 33.95 ± 1.25%
Phase (%) Catagen IV-V (male C57BL/6 mice; [3]): 23.6 ± 1.8%
Phase (%) Catagen VI-VIII (male C57BL/6 mice; [3]): 3.45 ± 0.25 %
Numbers of Hair Bulbs/mm deep subcutis (C57BL/6 mice): 6.8 ± 1.24 /mm
increase in total number of hair bulbs versus vehicle or 18-mer (C57BL/6 mice): 1.6 fold
hair regrowth after depilation (FIG. 7, in words) (C57BL/6 mice): amelioration of the retardation of hair regrowth
Hair Growth Score (C57BL/6 mice): 4.25 ± 0.25
